Experimental data as given in the pKa sets of Baltruschat and Czodrowski (2020).
Where a SMILES comes first, the peptide text is derived from it. [ ]: non-standard residue; d: D form. pGlu = O=C1CC[C@@H](C(=O)O)N1

Structure (SMILES)	pKa (acidic group)	pKa (basic group)
O=C(O)C1CCCC[NH2+]1 (configuration not stated)	2.5	–
N[C@@H]1CCC[C@H](O)C1	–	10.1
CN(C)C(=S)SCC(=O)O	3.34	–
Cc1cc(C(C)C)cc(C)c1O	10.9	–
CNC(C)Cc1ccccc1 (configuration not stated)	–	9.87
c1ncc(Cc2c[nH+]c[nH]2)[nH]1	–	5.69
CNCC(C)c1ccccc1 (configuration not stated)	–	9.87
Cc1ccccc1-c1nnn[nH]1	4.09	–
Cc1nc(NS(=O)(=O)c2ccc(N)cc2)no1	4.4	–
CC/C=C/CC1=[NH+]C(C(=O)O)[C@@H]2SC(C)(C)C(C(=O)O)N12 (some centres not stated)	2.4	–
NC(=O)Nc1[nH]c[nH+]c1C(=O)O	2	–
O=C(O)CCCC(=O)NOCc1ccccc1	4.7	–
CC[C@]1(O)C[C@@H](C)N[C@H]2CCCC[C@@H]21	–	9.71
Cc1cc(O)nn1-c1ccccc1C(=O)[O-]	12.2	–
N/C(=N\O)C(N)c1ccccc1 (configuration not stated)	–	7.15
Cc1ccccc1/N=C/N(C)C	–	8.27
O=C(O)c1cccc[nH+]1	1.25	-0.84
CN1CCC=C(C#N)C1	–	6.35
O=C(Cc1cnccn1)c1ccccc1	–	0.33
OCc1ccccn1	–	4.66
Nc1ccccc1[N+](=O)[O-]	13.4	-0.24
CC1NOCc2ccccc21 (configuration not stated)	–	3.7
CN(C)C(=O)/C=C(\O)c1ccncc1	7.32	–
CC(C)(C)CC(=O)n1ccnc1	–	3.8

Structure (SMILES)	pKa (acidic group)	pKa (basic group)
CN1[C@@H]2CC[C@H]1C[C@@H](O)C2	–	9.86
CC(N)CO (configuration not stated)	–	9.43
COc1cc(N)cc(C(=O)N[C@@H]2C[C@H]3CC[C@@H](C2)N3Cc2ccccc2)c1OC	–	9.07
CC[n+]1c([O-])ccnc1[S-]	–	8.65
O=C([O-])C1CSCN1 (configuration not stated)	–	6.23
Nc1ccc(S(=O)(=O)Nc2ncccn2)cc1	6.42	2
CN1C2=CCCC1CCC2 (configuration not stated)	–	8.8
CN(C)c1cccc2c(S(N)(=O)=O)cccc12	9.9	3.8
CCN(CC)CCNc1nc(N)nc(C)c1C	–	9.7
N/C(=N\O)c1ccccc1N	–	4.5
CC(C)CN[N+](=O)[O-]	6.38	–
NCC(=O)Nc1ccccc1	–	8.12
Fc1cccc(NC(=S)c2cccc(Br)c2)c1	10	–
O=c1[nH]c(=S)c2[nH]cnc2[nH]1	6.2	0.9
On1nnc2ccc(Br)cc21	3.97	–
N#CC(C#N)=C(C#N)NC1CCCCC1	6.01	–
CSc1cccc2ncccc12	–	4.5
Cc1cc(C)n(-c2cccc[nH+]2)n1	–	-2.4
CC(=O)c1ccc(O)c([N+](=O)[O-])c1	5.09	–
Cc1cnc2c(ccc3c(C)ccnc32)c1C	–	5.99
CC(=O)c1ccncc1	–	3.6
CCCNCC(=O)[O-]	–	10.2
CCCCCCCCCCCCCCN(CC(O)CC)CC(O)CC (configuration not stated)	–	5.7
C[Si](C)(CN)c1ccccc1	–	10.4

Structure (SMILES)	pKa (acidic group)	pKa (basic group)
CCOc1ccc2[nH]cnc2c1	–	5.57
CCOC(=O)/C(=N\O)C(C)=O	7.2	–
Nc1ncc2ncn([C@H]3O[C@@H](CO)[C@H](O)[C@@H]3O)c2n1	–	3.4
OC(CN1CCCC1)CN1CCCC1	–	9.73
Oc1ccc(C2NCCS2)cc1 (configuration not stated)	–	5.5
OCc1ccc(O)c(CO)c1	9.77	–
c1cn[nH]c1	14.2	2.61
O=C1NC(=O)C(c2ccccc2)C1=O (configuration not stated)	3.4	–
Fc1cccc(NC(=S)c2ccc(Cl)cc2)c1	10.2	–
CC(C)C[C@H]([NH3+])C(=O)O	2.54	–
Cc1c(C)c(O)c(C)c(C)c1[O-]	12.8	–
Sc1nnco1	3.85	–
COc1ccc(OC)c2c1nc(CCl)n2C	–	4.1
CN(C)c1ccc(/N=N/c2ccncc2)cc1	–	5.8
Cc1ccc(SCC(=O)O)cc1	3.57	–
CC(=O)c1ccc([O-])c(CN(C)C)c1	–	10
O=C(O)c1cc[nH]c1	4.98	–
Cc1ccc(NC(=O)CN2CCCCC2)cc1	–	7.85
CCOC(=O)C[N+](=O)[O-]	5.82	–
Nc1ncnc(N)c1N	–	5.78
CC(=O)Nc1ccccn1	–	4.09
CC(=O)N=C(N(C)C)N(C)C	–	7.5
ONc1ccccc1	10.7	-0.32
O=C(CC(=O)c1ccccc1)Nc1ccc([N+](=O)[O-])cc1	8.91	–

Structure (SMILES)	pKa (acidic group)	pKa (basic group)
CCOCCn1c(N2CCC[NH+](CCCCn3cc(C(=O)O)cn3)CC2)[nH+]c2ccccc21	3.7	–
OB(O)CCc1ccccc1	10	–
CC[NH+](CC)CCNc1nc(N)nc(C)c1C	–	7.9
CCCN(CCC)CCC	–	10.5
COc1cc(N)c(C#N)c(N)n1	–	4.17
Nc1cc[nH+]c2c1ncn2CCOCP(=O)([O-])O	7.1	–
Cc1[nH+]c2cccc(N)c2n1C	–	2.35
CCCCNCC[NH2+]CCCC	–	7.46
c1ccc(-c2nc3ncncc3[nH]2)cc1	8.09	2.68
COCCN(CCOC)c1ccccc1	–	4.11
O/N=C/NO	10.7	4.05
CC(=O)CC(=O)Nc1ccccc1	9.94	–
O=C1CC(=O)CC2(CCCCC2)C1	5.2	–
O=[N+]([O-])CCO	9.4	–
C=C(C)C(=O)OCCN(C)C	–	8.06
Cc1cccc(NCCS)c1	–	4.68
C[Se](C)=O	–	2.55
COC(=S)C1c2ccccc2-c2ccccc21	7.4	–
CCCCCCCCCCCCCCCC[NH+](CCCCCCCCCCCCCCCC)CCn1ccnc1	–	4
Oc1ccc2c(cnc3ccccc32)c1	8.68	4.39
Cc1cc(-c2ccccn2)nn1C	–	4.52
C[NH2+]CCCC(=O)O	4.03	–
O=c1c(O)c1-c1ccccc1	2.01	–
COCCN(C)c1ccccc1	–	4.81

Structure (SMILES)	pKa (acidic group)	pKa (basic group)
Cc1[nH]c(-c2ccccc2S)[nH+]c1C	3.9	–
O=P(O)(O)C([NH2+]Cc1cc[nH+]cc1)c1ccccc1O (configuration not stated)	2.28	–
O=Cc1ccc(O)cc1	7.53	–
CNCC[NH2+]C	–	7.29
Cc1ccc(/C=N/O)cc1	10.9	–
Nc1ccc2ccccc2c1[N+](=O)[O-]	–	-0.92
C=CCN(CC=C)CCCNC(=O)/C=N/[O-]	–	9.34
CN(C)CC[Se-]	–	10.8
NCC[S-]	–	10.7
NCC[Se-]	–	10.9
O=[N+]([O-])CCc1ccccc1	8.55	–
CSc1ccc(N)c([N+](=O)[O-])c1	–	-0.28
C/C(=C(/S)CCO)N(C=O)Cc1cnc(C)nc1N	11.4	4.19
COP(=O)(O)NS(C)(=O)=O	1.16	–
CC(=O)c1cccc(C(=O)O)c1	3.84	–
CCC(=O)C(CC(C)N(C)C)(c1ccccc1)c1ccccc1 (configuration not stated)	–	8.62
CCCNCCNCCC	–	10.3
C[NH+](C)CC(P(=O)([O-])O)P(=O)([O-])O	5.75	–
C[C@H](C1CC1C(=O)O)[C@H]1CC[C@H]2[C@@H]3[C@@H](O)C[C@@H]4C[C@H](O)CC[C@]4(C)[C@H]3CC[C@]12C (some centres not stated)	5.01	–
C(=C/c1ccncc1)/c1ccccc1	–	5.77
Cc1c(O)n[nH]c1-c1ccccc1	7.6	–
O=C(O)/C=C\SC1CCCCC1	4.95	–
c1ccc2cnncc2c1	–	3.47
CC(=O)[n+]1cccc(Cl)c1	2.98	–

Structure (SMILES)	pKa (acidic group)	pKa (basic group)
C/C(=N/O)c1ccc(O)cc1O	8.35	–
[NH3+]CCc1c[nH]cn1	–	6.08
NCCCCC[NH3+]	–	9.73
C[C@H]([NH3+])C(=O)N[C@@H](Cc1c[nH]c[nH+]1)C(=O)O	2.73	–
Cc1cccc(C)c1N(C)C	–	5.85
CC1=C/C(=N\c2ccc(O)cc2)C(C(C)C)=CC1=O	8.85	–
Oc1ccc(/N=N/c2ccncc2)cc1	7.73	4.65
COCCNc1cccc(C)c1	–	4.29
CNCc1ccc(C)cc1	–	9.93
CCn1cnc2ccccc21	–	5.66
CC(S)C(=O)[O-] (configuration not stated)	10.1	–
CN(C)CCOC(c1ccccc1)c1ccc(Br)cc1 (configuration not stated)	–	8.64
O=C(O)CCS	4.38	–
C=CC(=O)OCCN(C)C	–	7.9
C/C=C\C=C/C(=O)O	4.51	–
N#CC(C#N)=NNc1ccc([N+](=O)[O-])cc1	5.5	–
OC(c1ccncc1)(c1ccccn1)c1ccccn1	13.1	–
CCCSC(C)C(=O)O (configuration not stated)	3.82	–
CC1(C)[C@@H]2CC[C@](C(=O)O)(C2)[C@@H]1O	4.83	–
Nc1n[nH]c(N)c1/N=N/c1ccc(C(=O)O)cc1	4.68	3.4
CC(C)Cc1cnc(CC(C)C)c(O)[nH+]1	1.7	–
O=C1CSCC(=O)C1	4.34	–
CN[C@@H]1[C@@H](C)[C@@H]1NC	–	9.13
Nc1nc2ccccc2[nH]1	–	7.49

Structure (SMILES)	pKa (acidic group)	pKa (basic group)
N/C=N/O	–	5.05
CC(C)CNCC(=O)[O-]	–	10.1
CN(C)c1cccc([N+](C)(C)C)c1	–	2.6
OCCCCCc1cccnc1	–	5.72
CN(C)c1cc[nH+]cc1	–	-7.78
NCCNC(=O)c1ccccc1	9.13	–
C[C@H](NC(=O)[C@H](CCC(N)=O)NC(=O)[C@@H]1CCC(=O)N1)C(=O)O ([pGlu]-Gln-Ala-OH)	3.67	–
O=c1[nH]cc(SSc2c[nH]c(=O)[nH]c2=O)c(=O)[nH]1	8	–
CCN(CC)CCC#N	–	7.62
O=c1[nH]ccc2nnnn12	6.95	–
COc1c(C)cccc1C(=O)N[C@@H]1C[C@H]2CC[C@@H](C1)N2Cc1ccccc1	–	8.92
CC(O)CN(CC(C)O)C(C)C (configuration not stated)	–	9.33
S=c1[nH]cnc2nn[nH]c12	4.6	–
c1ccc(C(CCN2CCOCC2)c2ccccc2)cc1	–	7.25
NC1=[NH+][C@H]2C[C@@H](N1)N[C@@H]2C(=O)[O-]	–	5.5
[O-]c1nc([O-])c2[nH]nnc2[nH+]1	–	4.2
CN(C)CCCCCCCCCNC(=O)/C=N/[O-]	–	10.5
CN1CCNCC1	–	9.6
O[C@H]1[C@H](O)[C@@H](n2cnc3ccccc32)OC[C@H]1O	–	4.15
c1ccc2c(c1)CCNC2	–	9.48
Nc1ccc(-c2ccc(/N=C/c3ccccc3O)cc2)cc1	11.1	7.68
CSc1ncc2[nH]cnc2n1	8.91	1.91
CC[Si](C)(C)CC(=O)O	5.4	–
